For series [1], the system named is animal models for schizophrenia. Conditions: literature statement; cited from earlier work.
In series [2] the target is T1, Human 5-HT6 receptor (Homo sapiens, UniProt P50406).
T1 construct: expressed in transfected cells; host or cells: HEK293
The series can be described thus: Binding assay for human 5-HT6 receptor ([3H] LSD radioligand). Conditions: [3H] LSD 1.5 nM; human recombinant receptor in HEK293 cells. The procedure: Binding Assay for Human 5-HT6 Receptor
Compounds can be tested according to the following the procedures. Materials and Methods:
Receptor source: Human recombinant expressed in HEK293 cells
Radioligand: [^3H] LSD (60-80 Ci/mmol)
Final ligand concentration—[1.5 nM]
Non-specific determinant: Methiothepin mesylate—[0.1 μM]
Reference compound: Methiothepin mesylate
Positive control: Methiothepin mesylate
Reactions were carried out in […] TRIS-HCl (pH 7.4) containing 10 μM MgCl2, 0.5 mM EDTA for 60 minutes at 37° C. The reaction was terminated by rapid vacuum filtration onto glass fiber filters. Radioactivity trapped onto the filters was determined and compared to control values in order to ascertain any interactions of test compound(s) with the cloned serotonin 5-HT6binding site.
Literature Reference: Monsma F. J. Jr., et al., Molecular Cloning and Expression of Novel Serotonin Receptor with High Affinity for Tricyclic Psychotropic Drugs. Mol. Pharmacol. (43): 320-327 (1993).

Series [3] in a line: Rodent pharmacokinetic study. The format is in vivo, Male wistar rats. Conditions: plasma, Wistar/Male rat, 10 mg/kg; for bioavailability: oral vs intravenous, read-out: Bioavailab; for Cmax / Tmax / half-life / AUC: water; for AUC: read-out: AUC1. On the procedure: Rodent Pharmacokinetic Study Male wistar rats (230-280 grams) obtained from NIN (National Institute of Nutrition, Hyderabad, India) were used as an experimental animal. Three to five animals were housed in each cage. Animals were kept fasted over night and maintained on a 12 hours light/dark cycle. Three rats were dosed NCE (10 mg/Kg) orally and intravenously on day 0 and day 2. At each time point blood was collected by jugular vein. Plasma was stored frozen at −20° C. until analysis. The concentrations of the NCE compound in plasma were determined using LC-MS/MS method. Schedule time points: Pre dose 0.25, 0.5, 1, 1.5, 2, 3, 4, 6, 8, 10, 12 and 24 hours after dosing (n=3). The NCE compounds were quantified in plasma by validated LC-MS/MS method using solid phase extraction technique. NCE compounds were quantified in the calibration range of 2-2000 ng/mL in plasma. Study samples were analyzed using calibration samples in the batch and quality control samples spread across the batch. Pharmacokinetic parameters Cmax, Tmax, AUCt, AUCinf, half life, volume of distribution, clearance, mean residence time and thereby oral bioavailability were calculated by non-compartmental model using software WinNonlin version 5.1.

The test system of series [4] is rats. In words: Water maze, scopolamine induced reversal. The format is in vivo. The procedure: The water maze apparatus consisted of a circular pool (1.8 m diameter, 0.6 m high) constructed in black Perspex (TSE systems, Germany) filled with water (24±2° C.) and positioned underneath a wide-angled video camera to track animal. The 10 cm^2 perspex platform, lying 1 cm below the water surface, was placed in the centre of one of the four imaginary quadrants, which remained constant for all rats. The black Perspex used in the construction of the maze and platform offered no intramaze cues to guide escape behavior. By contrast, the training room offered several strong extramaze visual cues to aid the formation of the spatial map necessary for escape, learning. An automated tracking system, [Videomot 2 (5.51), TSE systems, Germany] was employed. This program analyzes video images acquired via a digital camera and an image acquisition board that determined path length, swim speed and the number of dutation of swim time spent in each quadrant of the water maze.

Series [5] is described as follows: Rodent brain penetration study. The format is in vivo, Male Wister rats. The settings on record: brain homogenate and plasma; Wistar/Male rat, 10 mg/kg, water, Oral (as in table); read-out: Steady State Brain Penetration (Cb/Cp).
The subject of series [6] is Male Wister rats. In words: Object recognition task model (NORT). The format is in vivo. Conditions: for NORT Discriminative Index (DI), treatment: p.o., vehicle value in brackets; for NORT Inference: at the dose tested (10 or 30 mg/kg, p.o.). On the procedure:
Object Recognition Task Model
The cognition-enhancing properties of compounds of this invention were estimated using a model of animal cognition: the object recognition task model.
Male Wister rats (230-280 grams) obtained from N. I. N. (National Institute of Nutrition, Hyderabad, India) were used as experimental animals. Four animals were housed in each cage. Animals were kept on 20% food deprivation before one day and given water ad libitum throughout the experiment and-maintained on a 12 hours light/dark cycle. Also the rats were habituated to individual arenas for 1 hour in the absence of any objects.
One group of 12 rats received vehicle (1 mL/Kg) orally and another set of animals received compound of the formula (I) either orally or i.p., before one hour of the familiar (T1) and choice trial (T2).
The experiment was carried out in a 50×50×50 cm open field made up of acrylic. In the familiarilation phase, (T1), the rats were placed individually in the open field for 3 minutes, in which two identical objects (plastic bottles, 12.5 cm height×5.5 cm diameter) covered in yellow masking tape alone (a1 and a2) were positioned in two adjacent corners, 10 cm. from the walls. After 24 hours of the (T1) trial for long-term memory test, the same rats were placed in the same arena as they were, placed in T1 trial. Choice phase (T2) rats were allowed to explore the open field for 3 minutes in presence of one familiar object (a3) and one novel object (b) (Amber color glass'bottle, 12 cm high and 5 cm in diameter). Familiar objects presented similar textures, colors and sizes. During the T1 and T2 trial, explorations of each object (defined as sniffing, licking, chewing or having moving vibrissae whilst directing the nose towards the object at a distance of less than 1 cm) were recorded separately by stopwatch. Sitting on an object was not regarded as exploratory activity, however, it was rarely observed. T1 is the total time spent exploring the familiar objects (a1+a2). T2 is the total time spent exploring the familiar object and novel object (a3+b).
The object recognition test was performed as described by Ennaceur, A., Delacour, J., 1988, A new one-trial test for neurobiological studies of memory in rats—Behavioral data, Behay. Brain Res., 31, 47-59.
Some representative compounds have shown positive effects indicating the increased novel object recognition viz; increased exploration time with novel object and higher discrimination index.

In series [7] the test system is 5-HT6 receptor. Conditions: literature statement; cited from earlier work.

Molecules are shown by their SMILES. Where two headings read alike, the source gives them in different places.

T1 sequence (P50406 whole entry): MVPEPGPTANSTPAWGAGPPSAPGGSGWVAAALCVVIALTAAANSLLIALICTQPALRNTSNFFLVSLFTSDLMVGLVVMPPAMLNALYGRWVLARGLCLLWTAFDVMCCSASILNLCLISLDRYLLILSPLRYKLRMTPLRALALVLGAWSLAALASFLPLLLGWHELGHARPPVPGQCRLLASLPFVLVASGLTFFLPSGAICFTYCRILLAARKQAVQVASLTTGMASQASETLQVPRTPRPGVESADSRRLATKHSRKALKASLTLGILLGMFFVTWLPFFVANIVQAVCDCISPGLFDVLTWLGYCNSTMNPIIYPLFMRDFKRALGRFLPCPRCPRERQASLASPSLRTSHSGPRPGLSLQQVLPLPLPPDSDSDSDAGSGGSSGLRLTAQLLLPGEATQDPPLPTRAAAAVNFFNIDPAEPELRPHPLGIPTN

As for `COc1ccc(NS(=O)(=O)c2sc3ccc(Cl)cc3c2C)cc1N1CCNCC1` [SB-271046, 5-Chloro-N-(4-methoxy-3-piperazin-1-ylphenyl)-3-methyl-2-benzothiophenesulfonamide], the “Activity in animal tests related to positive or negative symptoms of schizophrenia” value in series [1] is “inactive”.
Compound `CCN1CCN(Cc2cc(S(=O)(=O)n3ccc4ccccc43)ccc2C)CC1.Cl.Cl` [Example 23, 1-[4-methyl-3-(4-ethylpiperazin-1-ylmethyl)benzenesulfonyl]-1H-indole dihydrochloride] yielded a melting point of 250.13 °C. For the same compound, the Ki in series [2] was 3.96 nM. Besides, the bioavailability in series [3] is 14 ± 10%. Moreover, in series [3] (Intravenous), the peak level (Cmax) was 4680 ± 617 ng/mL, the Tmax turned out to be 0.08 h, the half-life is 6.25 ± 0.35 h and the AUC is 4070 ± 888 ng·h/mL. In series [3] (Oral), the highest level (Cmax) was 749 ± 836 ng/mL, the Tmax came out at 0.5 ± 0.43 h, the half-life is 3.18 ± 1.71 h and the AUC was 1170 ± 1050 ng·h/mL. Also, the “Scopolamine Induced Reversal” value in series [4] is given as “≧30 mg/kg, p.o”. The Kp in series [5] amounted to 0.53 ± 0.13. Further, the “NORT Discriminative Index (DI), treatment” value (shortened to “NORT Discriminative Index”) in series [6] (30 mg/kg) was 0.58 (0.49). For the same compound, the “NORT Inference” value in series [6] is on record as “Active”.
`Cc1cn(S(=O)(=O)c2ccc(Cl)c(CN3CCN(C)CC3)c2)c2ccccc12.Cl.Cl` [Example 35, 1-[4-Chloro-3-(4-methylpiperazin-1-ylmethyl)benzenesulfonyl]-3-methyl-1H-indole dihydrochloride] registered a melting point of 216.9 to 218.7 °C. In addition, in series [2], the Ki was determined as 5.45 nM. In addition, the bioavailability in series [3] turned out to be 10 ± 6%. Moreover, in series [3] (Intravenous), the Cmax turned out to be 481 ± 331 ng/mL, the time of peak concentration (Tmax) is 0.08 h, the half-life was 5.84 ± 2.21 h and the AUC stood at 808 ± 156 ng·h/mL. Further, in series [3] (Oral), the Cmax turned out to be 106 ± 1 ng/mL, the Tmax came to 0.38 ± 0.18 h, the half-life was 1.73 ± 0.56 h and the AUC stood at 342 ± 152 ng·h/mL. For the same compound, the “Scopolamine Induced Reversal” value in series [4] is on record as >30 mg/kg, p.o. Also, in series [5], the Kp came to 1.61 ± 0.39. In addition, in series [6] (30 mg/kg), the “NORT Discriminative Index” value is given as 0.63 (0.49). Besides, in series [6], the “NORT Inference” value is listed as “Active”.
For the compound `CN(C)CCC=C1c2ccccc2CCc2ccccc21` [amitriptyline], the “Affinity for the 5-HT6 receptor” value in series [7] was “high affinity”.
On to `CN1CCN2c3ccccc3Cc3ccccc3C2C1` (centres unmarked) [mianserin], for which the “Affinity for the 5-HT6 receptor” value in series [7] is listed as “high affinity”.
`Cc1ccc(S(=O)(=O)n2ccc3ccccc32)cc1CN1CCN(C)CC1.Cl.Cl` [Example 22, 1-[4-methyl-3-(4-methylpiperazin-1-ylmethyl)benzenesulfonyl]-1H-indole dihydrochloride]: in series [2], the Ki turned out to be 7.01 nM. The bioavailability in series [3] is 30 ± 7%. Besides, in series [3] (Intravenous), the Cmax was 4320 ± 1680 ng/mL, the Tmax stood at 0.08 h, the half-life was 2.69 ± 1.51 h and the AUC worked out at 5130 ± 1750 ng·h/mL. In series [3] (Oral), the Cmax was 1380 ± 427 ng/mL, the Tmax worked out at 0.38 ± 0.18 h, the half-life was 7.85 ± 2.62 h and the AUC stood at 3190 ± 1750 ng·h/mL. Further, the “Scopolamine Induced Reversal” value in series [4] is listed as >30 mg/kg, p.o. For the same compound, the Kp in series [5] was 2.03 ± 0.42. The “NORT Discriminative Index” value in series [6] (10 mg/kg) is listed as 0.57 (0.54). For the same compound, in series [6], the “NORT Inference” value was “Active”.
